We go through one compound from PMC5007466, “VCP recruitment to mitochondria causes mitophagy impairment and neurodegeneration in models of Huntington's disease” (Nature Communications, 2016).

The test system of data set [1] is HD patient-iPS cell derived neurons. In words: Neurite length of DARPP-32/Tuj1-positive medium spiny neurons. The class given is cell-based, human. To be noted: DARPP-32/Tuj1-positive neurons, 1 μM per day for 5 days versus TAT. The procedure: iPS cells from a normal subject and a HD patient (carrying 41 CAG repeats) were differentiated into neurons using the protocol from our previous studies. Briefly, iPS cells were plated onto 6-well plates precoated with 2.5% Matrigel and allowed to reach 90% confluence in feeder-free medium. For the first 10 days, cells were treated with SB431542 (10 μM; Tocris Bioscience) and Noggin (100 ng/ml) in Neural Media (NM) containing Neurobasal and DMEM (1:1), B27 supplement minus vitamin A (50 × , Invitrogen), N2 supplement (100 × , Invitrogen), GlutaMax (Invitrogen, 100 × ), FGF2 ([…]) and EGF ([…]), 100 units per ml penicillin and 100 μg ml^−1 streptomycin). For the next 10 days, cells were treated with human recombinant Sonic hedgehog (SHH, 200 ng/ml), DKK1 (100 ng/ml) and BDNF (20 ng/ml) and 10 μM Y27632 (Sigma) in neuronal differentiation medium containing Neurobasal and DMEM (1:3), B27, N2, GlutaMax and PS. […]
In patient-iPS cell-derived neurons, to ensure the observation of mitochondria in the medium spiny neurons, the cells were stained with a mitochondrial marker (anti-TOM20, 1:500) and markers for medium spiny neurons (DARPP-32, 1:200, Epitomics). The quantitation of neurite length was conducted only in the neurons immunopositive for both DARPP-32 and Tuj1 (neuron-specific class III beta-tubulin, 1:5,000, Covance). At least 50 neurons/group were counted.

The subject of data set [2] is YAC128 mice. In words: EM of striatal mitophagosomes. The class given is in vivo, mouse. The note with it: YAC128, 3 mg kg^−1 per day, age 3–9 months, per 100 μm^2. The source says:
The HdhQ7 and HdhQ111 cells were fixed by 2.5% glutaraldehyde in 0.1 M cacodylate buffer. Small pieces of the striata tissue of mice were fixed by immersion in triple aldehyde-DMSO. After rinsing in 0.1 M phosphate buffer (pH 7.3), the samples were post-fixed in ferrocyanide-reduced osmium tetroxide.
The above fixed samples were rinsed by water followed by overnight soaking in acidified uranyl acetate. After rinsing in distilled water, the blocks were dehydrated in ascending concentrations of ethanol, passed through propylene oxide, and embedded in Poly/Bed resin. Thin sections were sequentially stained with acidified uranyl acetate followed by a modification of Sato's triple lead stain. These sections were examined in a FEI Tecnai Spirit (T12) transmission electron microscope with a Gatan US4000 4kx4k CCD at the Case Western Reserve University EM core facility. Mitochondria from 15 random areas in each group were imaged by an experimenter blind to the experimental groups. The length of mitochondria was measured by NIH Image J software. The number of mitophagosomes per 100 μm^2 was counted. The number of gold particles labelling VCP on mitochondria were quantitated.
YAC128 mice (Tg) and their age-matched wt littermates were implanted with an osmotic pump containing TAT control peptide or HV-3 peptide (3 mg/kg/day, each) starting from the age of 3 months. […]

Data set [3] deals with YAC128 mice. In words: General motility, YAC128 (24 h locomotor activity). To be noted: YAC128, 3 mg/kg/day from 3 months; from 6 to 12 months of age, n=15–20. The class given is in vivo, mouse. From the text: YAC128 (FVB-Tg(YAC128)53Hay/J, JAX stock number: 004938) breeders (FVB/N genetic background) were purchased from Jackson Laboratories. The YAC128 mice contain a full-length human huntingtin gene modified with a 128 CAG repeat expansion in exon 1. The mice were mated, bred and genotyped in the animal facility of Case Western Reserve University. Male mice at the ages of 2, 3, 6, 9 and 12 months were used in the study.
YAC128 mice (Tg) and their age-matched wt littermates were implanted with an osmotic pump containing TAT control peptide or HV-3 peptide (3 mg/kg/day, each) starting from the age of 3 months. The pump was replaced once every month. By the age of 12 months, the treatments were terminated and the mouse samples were harvested for analysis.
Gross locomotor activity was assessed in R6/2 mice and age-matched wt littermates at the ages of 13 weeks and in YAC128 mice and age-matched wt littermates at the ages of 2, 3, 6, 9, and 12 months. In an activity chamber (Omnitech Electronics, Inc), mice were placed in the center of the chamber and allowed to explore while being tracked by an automated beam system (Vertax, Omnitech Electronics Inc). Distance moved, horizontal, vertical, and rearing activities were recorded. Because R6/2 mice were sensitive to changes in environment and handling, we only conducted one-hour locomotor activity analysis for R6/2 mice and wt littermates. […]

In another data set the test system is C57Black mice. In words: Toxicity analysis in naive mice. The class given is in vivo, mouse. The procedure:
Supplementary Figure 8 : Toxicity analysis of HV -3in naïve mice .
We performed a toxicity analysis of HV-3 in mice. Six -week-old C57Black mice were treated with saline or peptide HV-3 at 3mg/kg/day by Alzet pump implantation. After 4- week treatment, the plasma, blood and whole mouse bodies of mice were collected. Examination on blood chemistry (Supplementary Table 1), hematology (Supplementary Table 2) and general necropsy of mice were performed at the Animal Diagnostic Laboratory at Stanford University. The experimenter who conducted the analysis was blind to the treatment groups. Automated hematology was performed on the Sysmex XT-2000iV analyzer system. Blood smears were made for all full CBC samples and reviewed by a medical technologist. Manual differentials were performed as indicated by species and automated analysis. Chemistry analysis was performed on the Siemens Dimension Xpand analyzer.
(a) Frozen tissue sections of brain and spleen were stained with anti-CD3 antibody by immunohistochemistry. There is no observed difference in the immuno-density of CD3 between saline-and HV-3- treated groups. Scale bar: 100 µm. (b) The size and weight of spleens in mice treated with saline or peptide HV-3 were compared. Left: the ratio of spleen weight to body weight was calculated and expressed as mean ± SEM of five mice in each group. Right: the images of spleens of mice treated with saline or peptide HV-3. There is no observed difference in the size of the spleens. Paired Student’s t test. Four-week sustained treatment with HV-3 by pump implantation had no effects on blood chemistry (Supplementary Table 1), hematology (Supplementary Table 2), and gross necropsy of naïve mice when compared to mice treated with saline. A four-week treatment with HV-3 had […] on immuno-density of CD3, a marker of T-cell for adaptive immune response, in the brains and spleens of naïve mice (a). Treatment with HV-3 had no effects on the size and weight of the spleens (b). […]

The mark [4] stands for this setting: 3 mg/kg/day, 4 weeks, versus saline.

In the case of `CSCC[C@H](NC(=O)[C@@H](NC(=O)[C@H](CC(C)C)NC(=O)[C@@H](NC(=O)[C@H](Cc1c[nH]cn1)NC(=O)CCCCCNC(=O)[C@H](CCCNC(=N)N)NC(=O)[C@H](CCCNC(=N)N)NC(=O)[C@H](CCCNC(=N)N)NC(=O)[C@H](CCC(N)=O)NC(=O)[C@H](CCCNC(=N)N)NC(=O)[C@H](CCCNC(=N)N)NC(=O)[C@H](CCCCN)NC(=O)[C@H](CCCCN)NC(=O)[C@H](CCCNC(=N)N)NC(=O)CNC(=O)[C@@H](N)Cc1ccc(O)cc1)C(C)C)C(C)C)C(=O)N[C@@H](CS)C(=O)N[C@@H](C)C(=O)N[C@H](C(N)=O)[C@@H](C)O` [HV-3], the neurite shortening result in data set [1] is “reduced neurite shortening”. For the same compound, in the data set with YAC128 mice [2], the “number of mitophagosomes in striatum” value is “reduced by HV-3 treatment”. Moreover, the general movement activity result in the data set on YAC128 mice [3] was “improved general movement activity”. For the same compound, in the data set on C57Black mice (3 mg kg^−1 per day, 4-week Alzet pump), the toxicity result is reported as “not toxic to naive mice”. Besides, in the data set on C57Black mice (setting [4]), the “CD3 immunodensity in brain and spleen” value is given as “no significant effects on the immunodensity of CD3”; the gross necropsy result is reported as “no effects”. Moreover, the “size and weight of spleens” value with C57Black mice (3 mg/kg/day, 4 weeks, versus saline, n = 5) was “no obvious effects on the size and weight of the spleens”.
